Laboratory results as given in US12282021B2, “Stratification of acute myeloid leukaemia patients for sensitivity to kinase pathway inhibitor therapy” (KINOMICA LIMITED, priority 2017, dated 2025).

Test system: AML primary cells
Experiment: Viability assay: ex-vivo drug testing of AML primary cells with kinase inhibitors (Guava ViaCount, 72h)
Assay type: cell-based, human
Conditions: for AML cases whose viability was reduced by >50% relative to DMSO control / number of AML cases whose viability was reduced by >50% relative to DMSO control / sensitivity of M4-Like and CDs+ cases versus M1-Like and CDs− cases (cell viability): 72h; for AML cases whose viability was reduced by >50% relative to DMSO control / number of AML cases whose viability was reduced by >50% relative to DMSO control: ex vivo; for sensitivity of M4-Like and CDs+ cases versus M1-Like and CDs− cases (cell viability): 1 μM PAKi, 10 μM FLT3/PKCi (FIG. 5A-B)
Description: The study was performed in 36 randomly selected primary samples of mononuclear cells extracted from the peripheral blood of AML patients at diagnosis. Experiments were performed as described below to determine the in vitro viability of the cells in response to treatment with inhibitors of the kinases FLT3/PKC (midostaurin, FLT3/PKCi), PAK (PF-3758309 PAKi), CK2 (silmitasertib CK2i) and MEK (trametinib, MEKi) The P38 inhibitor (P38i) TAK-715 was included as a negative control. Cells obtained from of 36 AML patients with well annotated clinical data were treated with these compounds for 72h.
The study was performed in 36 primary samples of mononuclear cells extracted from the peripheral blood of AML patients at diagnosis. Samples were randomly selected from the BCI tissue bank collection. Initially, 45 samples were included in the study but nine were later excluded because these were not viable in the ex-vivo experiments. Material availability allowed proteomics and mass cytometry analysis of 30 samples and DNA sequencing of 27 samples. Ex-vivo drug testing was performed in quadruplicate sampling replicates and viability values averaged and expressed relative to vehicle control.
Ex-vivo drug testing of AML primary cells was as previously described in Casado P, Rodriguez-Prados J C, Cosulich S C, et al. Kinase-substrate enrichment analysis provides insights into the heterogeneity of signaling pathway activation in leukemia cells. Sci Signal. 2013; 6(268):rs6. Briefly, cells were re-suspended in MS-5 conditioned IMDM medium, seeded in 96 well plates and treated with vehicle or 1 to 10000 nM of the indicated inhibitors for 72h. Cells were stained with Guava ViaCount reagent and cell number and viability was measured. Flow cytometry data were analyzed using CytoSoft (v2.5.7).
Mass cytometry was used to simultaneously measure the surface expression of 17 differentiation markers (CD3, CD7, CD11b, CD14, CD15, CD16, CD19, CD33, CD34, CD38, CD44, CD45, CD64, CD117, CD123, CD184, HLA-DR) in mononuclear cells extracted from the peripheral blood of 30 AML patients. Label free quantitative phosphoproteomics based on TiO2 phosphoenrichment was used to quantify>5,000 phosphorylation sites in the same AML primary samples and KSEA technology was applied to infer kinase activity from the phosphoproteomics data. Gene ontology enrichment was calculated based on the genes that code for the proteins where the phosphorylation sites were detected using DAVID software. Guava EasyCyte Flow Cytometry was used to determine cell viability after the treatment of the same patient samples with 5 kinase inhibitors (PF-3758309, Midostaurin, silmitasertib, trametinib and TAK715 aiming to target the kinases PAK, Flt-3, Casein Kinase 2, MEK and P38, respectively).

[1] = 15 cases positive for RAS/MEK/ERK activation

**Q.** Which results are given for `O=C(O)c1ccc2c(c1)nc(Nc1cccc(Cl)c1)c1ccncc12` [CK2i, silmitasertib]?
**A.** AML cases whose viability was reduced by >50% relative to DMSO control (1 μM dose, 36 AML cases): 22%; number of AML cases whose viability was reduced by >50% relative to DMSO control (1 μM dose, 36 AML cases): 8/36

**Q.** With `CO[C@@H]1[C@H](N(C)C(=O)c2ccccc2)C[C@H]2O[C@]1(C)n1c3ccccc3c3c4c(c5c6ccccc6n2c5c31)C(=O)NC4` [FLT3/PKCi, midostaurin] as the compound, how does the “AML cases whose viability was reduced by >50% relative to DMSO control” value (1 μM dose, 36 AML cases) read?
**A.** The value was 25%.

**Q.** What about the “number of AML cases whose viability was reduced by >50% relative to DMSO control” value (1 μM dose, 36 AML cases) of the same compound?
**A.** Its value is 9/36.

**Q.** And the “sensitivity of M4-Like and CDs+ cases versus M1-Like and CDs− cases (cell viability)” value?
**A.** The value was “more sensitive”.

**Q.** What about the “effect of FLT3-ITD status on the responses of cells” value (FIG. 7F and FIG. 14B) of the same compound?
**A.** The value was “did not have an effect”.

**Q.** And the “sensitivity of samples positive for either CDs or phosphorylation on GSK3A or PCKδ versus other cases” value (FIG. 7F and FIG. 14B)?
**A.** The value was “more sensitive”.

**Q.** What does the source list for `CC(=O)Nc1cccc(-n2c(=O)n(C3CC3)c(=O)c3c(Nc4ccc(I)cc4F)n(C)c(=O)c(C)c32)c1` [MEKi, trametinib]?
**A.** AML cases whose viability was reduced by >50% relative to DMSO control (1 μM dose, 36 AML cases): 22%; number of AML cases whose viability was reduced by >50% relative to DMSO control (1 μM dose, 36 AML cases): 8/36; cases positive for RAS/MEK/ERK activation that showed high responses [1]: ~50%; number of cases positive for RAS/MEK/ERK activation that showed high responses [1]: 7/15

**Q.** `CCc1nc(-c2cccc(C)c2)c(-c2ccnc(NC(=O)c3ccccc3)c2)s1` [P38i, TAK-715] was tested. Which “AML cases whose viability was reduced by >50% relative to DMSO control” value (1 μM dose, 36 AML cases) did it give?
**A.** The value was 8%.

**Q.** And the “number of AML cases whose viability was reduced by >50% relative to DMSO control” value (1 μM dose, 36 AML cases)?
**A.** The value was 3 AML cases.

**Q.** What about the “sensitivity of M4-Like and CDs+ cases versus M1-Like and CDs− cases (cell viability)” value of the same compound?
**A.** Its value is “no differences”.

**Q.** Which “potency relative to the other compounds tested” value (1 μM dose, 36 AML cases) does the source give for `Cc1nc(Nc2[nH]nc3c2CN(C(=O)N[C@H](CN(C)C)c2ccccc2)C3(C)C)c2sccc2n1` [PAKi, PF-3758309] here?
**A.** Its value is “most potent of all the compounds tested”.

**Q.** What about the “AML cases whose viability was reduced by >50% relative to DMSO control” value (1 μM dose, 36 AML cases) of the same compound?
**A.** Its value is 50%.

**Q.** And the “number of AML cases whose viability was reduced by >50% relative to DMSO control” value (1 μM dose, 36 AML cases)?
**A.** The value was 18/36.

**Q.** What about the “sensitivity of M4-Like and CDs+ cases versus M1-Like and CDs− cases (cell viability)” value of the same compound?
**A.** The value was “more sensitive”.
